Experiments:
Format in all cases: cell-based
[1] = system: A. fumigatus (RCMB 002008); assay: Agar well diffusion, inhibition zone; settings: 10 mg/mL of the tested compounds
Method: (§1) The antimicrobial activity of the free ligands and the corresponding Cu(II) complexes was determined against different categories of microbes (Table 5). All inhibition zones were determined at 10 mg/mL of the tested compounds. […] The largest inhibition zones were found for B. subtilis (25 mm), which is very close to the standard Gentamycin (26 mm). […] Complex 1 evidenced antimicrobial activity against all microbes except C. albicans.
(§2) Method S2: Antimi crobial studies a) Tested pathogenic microbes
(§3) The antibacterial a ctivity of the studied ligands and their Cu(II) complexes were evaluated against two Gram positive bacteria ((S. aureus (ATCC 25923) and B. subtilis (RCMB015(1)NRR LB-543)), two Gram negatvie bacteria ((E. coli (ATCC 25922) and P. vulgaris (RCMB 004(1)ATCC 13315)) and two fungi ((A. fumigatus […]
was used as standard antibacterial agent. The samples maintained in Brain heart infusion (BHI) at 20 °C; […] of each stock–c ulture was added to 3 mL of BHI […]
broth. […]
(§4) 0.5). In case of fungi A. fumigatus (RCMB 002008) and C. albicans (RCMB 005003(1) ATCC 10231), the used medium in antagonistic activity against tested fungi is Potato Dextrose Agar, where Fluconazole was used standard antifungal agent. b) Agar well diffusion method
(§5) Synthetic compounds were prepared at concentration 10 mg/mL dissolved in DMSO as stock solutions. Preparation of sterilized Mueller Hinton agar plates seeded with tested pathogenic b acteria occurred. The wells are done by sterilized cork borer in size […]
(§6) comparably with DMSO as control. The plates were incubated at 37°C for 24 h. after incubation period; antimicrobial activity was d etermined by inhibition zones. […]

[2] = system: C. albicans (RCMB 005003(1) ATCC 10231); assay: Agar well diffusion, inhibition zone; settings: 10 mg/mL of the tested compounds
Method: as §1, §2
(§7) The antibacterial a ctivity of the studied ligands and their Cu(II) complexes were evaluated against two Gram positive bacteria ((S. aureus (ATCC 25923) and B. […]
as §4, §5, §6

[3] = system: B. subtilis (RCMB015(1)NRR LB-543); assay: Agar well diffusion, inhibition zone; settings: 10 mg/mL of the tested compounds
Method: as §1, §2, §3
(§8) was used as standard antibacterial agent. The samples maintained in Brain heart infusion (BHI) at 20 °C; […] of each stock–c ulture was added to 3 mL of BHI broth. Overnight cultures were kept for 24 h at 37 °C ± 1 °C and the purity of cultures was checked aft er 24 h of incubation. […]
(§9) b) Agar well diffusion method
as §5, §6

E. coli (ATCC 25922) [4] = assay: Agar well diffusion, inhibition zone; settings: 10 mg/mL of the tested compounds
Method: as §1, §2, §3, §8, §9, §5, §6

[5] = system: P. vulgaris (RCMB 004(1)ATCC 13315); assay: Agar well diffusion, inhibition zone; settings: 10 mg/mL of the tested compounds
Method: as §1, §2, §3, §8, §9, §5, §6

S. aureus (ATCC 25923) [6] = assay: Agar well diffusion, inhibition zone; settings: 10 mg/mL of the tested compounds
Method: as §1, §2, §3, §8, §9, §5, §6

[7] = system: A. fumigatus (RCMB 002008); assay: Minimum Inhibitory Concentration (MIC)
Method: as §2, §7
(§10) 0.5). In case of fungi A. fumigatus (RCMB 002008) and C. albicans (RCMB 005003(1) ATCC 10231), the used medium in antagonistic activity against tested fungi is Potato Dextrose Agar, where Fluconazole was used standard antifungal agent. […]
(§11) c) Minimum Inhibitory Concentration (MIC)
(§12) Different dilutions of the compounds are inoculat ed with tested pathogenic microbes.
(§13) After incubation period of 96 well microplate, the results are meas ured using microplate reader. To determine at what level the MIC endpoint is established; subculture of test samples at different concentrati ons occurred in nutrient agar plates.

[8] = system: C. albicans (RCMB 005003(1) ATCC 10231); assay: Minimum Inhibitory Concentration (MIC)
Method: as §2, §7, §10, §11, §12, §13

[9] = system: B. subtilis (RCMB015(1)NRR LB-543); assay: Minimum Inhibitory Concentration (MIC)
Method: as §2, §3, §8, §11, §12, §13

E. coli (ATCC 25922) [10] = assay: Minimum Inhibitory Concentration (MIC)
Method: as §2, §3, §8, §11, §12, §13

[11] = system: P. vulgaris (RCMB 004(1)ATCC 13315); assay: Minimum Inhibitory Concentration (MIC)
Method: as §2, §3, §8, §11, §12, §13

S. aureus (ATCC 25923) [12] = assay: Minimum Inhibitory Concentration (MIC)
Method: as §2, §3, §8, §11, §12, §13

CC(=NNc1nc(N2CCOCC2)nc(N2CCOCC2)n1)c1ccccc1[O-].CC(=O)[O-].[Cu+2] [Complex 2, [Cu(DMOT)(CH3COO)]]
Inhibition zone diameters [1]: 15 mm | Inhibition zone diameters [2]: 10 mm | Inhibition zone diameters [3]: 25 mm | Inhibition zone diameters (E. coli (ATCC 25922) [4]): 14 mm | Inhibition zone diameters [5]: 15 mm | Inhibition zone diameters (S. aureus (ATCC 25923) [6]): 11 mm | MIC [7]: 625 µg/mL | MIC [8]: 5000 µg/mL | MIC [9]: 39.06 µg/mL | MIC (E. coli (ATCC 25922) [10]): 1250 µg/mL | MIC [11]: 1250 µg/mL | MIC (S. aureus (ATCC 25923) [12]): 1250 µg/mL

CC(=NNc1nc(N2CCOCC2)nc(N2CCOCC2)n1)c1ccccc1[O-].O=[N+]([O-])[O-].[Cu+2] [Complex 3, [Cu(DMOT)(NO3)]]
Inhibition zone diameters [1]: no antifungal activity | Inhibition zone diameters [2]: no antifungal activity | Inhibition zone diameters [3]: 24 mm | Inhibition zone diameters (E. coli (ATCC 25922) [4]): 15 mm | Inhibition zone diameters [5]: 13 mm | Inhibition zone diameters (S. aureus (ATCC 25923) [6]): 12 mm | MIC [9]: 78.125 µg/mL | MIC (E. coli (ATCC 25922) [10]): 312.5 µg/mL | MIC [11]: 1250 µg/mL | MIC (S. aureus (ATCC 25923) [12]): 1250 µg/mL

Source: article PMC9106035, “Synthesis, X-ray Structure and Biological Studies of New Self-Assembled Cu(II) Complexes Derived from s-Triazine Schiff Base Ligand” (Molecules, 2022)
